# Activity calls are given as the source filed them. No cut-off for these calls is given here.
# Columns and labels:
# [1] = Half-life in Sprague-Dawley rat at 5 mg/kg, iv measured upto 24 hrs by LC-MS/MS method; format: ADME, organism-based; settings: in vivo
# HCT-116 = test: Cytotoxicity against human HCT-116 cells incubated for 48 hrs by CCK8 assay; format: functional, cell-based; settings: HCT-116, 48 h
# U-87MG ATCC [2] = test: Upregulation of p53 expression in human U-87 MG cells at 6.25 to 100 uM after 24 hrs by Western blotting analysis; format: functional, cell-based; settings: dose 6.25-100 µM
# [3] = Apparent volume of distribution in Sprague-Dawley rat at 5 mg/kg, iv measured upto 24 hrs by LC-MS/MS method; format: ADME, organism-based; settings: in vivo, read-out: Vz
# [4] = Aqueous solubility of compound by HPLC method; format: physicochemical; settings: water
# [5] = Inhibition of PP2A in human U-87 MG cell lysate using RRA(pT)VA as substrate; format: subcellular
# U-87 MG [6] = test: Antitumor activity against human U-87 MG cells xenografted in BALB/c nude mouse assessed as tumor growth retardation at 3 mg/kg, po administered every other day for 18 days; format: functional, organism-based; settings: U-87MG ATCC, time 18.0 day
# [7] = Aqueous stability of compound assessed as compound remaining measured at 240 mins by HPLC assay; format: physicochemical; settings: aqueous solution, read-out: Stability
# [8] = Toxicity in BALB/c nude mouse xenografted with U-87 MG cells assessed as liver damage at 1.5 to 3 mg/kg, po administered every other day for 18 days in presence of 40 mg/kg TMZ by H and E staining based assay; format: organism-based; settings: in vivo, 432 h, dose 1.5-3 mg/kg, time 18 day
# [9] = AUC(0 to infinity) in Sprague-Dawley rat at 5 mg/kg, iv measured upto 24 hrs by LC-MS/MS method; format: ADME, organism-based; settings: in vivo
# U-87 MG [10] = test: Cytotoxicity against human U-87 MG cells incubated for 48 hrs by CCK8 assay; format: functional, cell-based, U-87MG ATCC
# U-87 MG [11] = test: Induction of apoptosis in human U-87 MG cells assessed as G2/M phase cells at 5 uM incubated for 24 hrs by propidium iodide staining based flow cytometry analysis (reference value: 11.9%); format: functional, U-87MG ATCC
# U-87 MG [12] = test: Synergistic antiproliferative activity against human U-87 MG cells in presence of TMZ; format: functional, cell-based, U-87MG ATCC
# U-87MG ATCC [13] = test: Upregulation of p27 expression in human U-87 MG cells at 6.25 to 100 uM after 24 hrs by Western blotting analysis; format: functional, cell-based; settings: dose 6.25-100 µM
# [14] = Toxicity in BALB/c nude mouse xenografted with U-87 MG cells assessed as heart damage at 1.5 to 3 mg/kg, po administered every other day for 18 days in presence of 40 mg/kg TMZ by H and E staining based assay; format: organism-based; settings: in vivo, 432 h, dose 1.5-3 mg/kg, time 18 day
# [15] = Cmax in Sprague-Dawley rat at 5 mg/kg, iv measured upto 24 hrs by LC-MS/MS method; format: ADME, organism-based; settings: in vivo
# U-87 MG [16] = test: Induction of apoptosis in human U-87 MG cells assessed as S phase cells at 5 uM incubated for 24 hrs by propidium iodide staining based flow cytometry analysis (reference value: 29.4%); format: functional, U-87MG ATCC
# [17] = Cytotoxicity against HUVECs incubated for 48 hrs by CCK8 assay; format: toxicity, cell-based; settings: human, HUVEC cells
smiles,measurement,setting,value
O=C(O)[C@@H]1[C@H](C(=O)n2ccc3ccccc32)[C@H]2CC[C@@H]1O2,half-life,[1],2.41 h
same,IC50,HCT-116,26.5 µM
same,Activity,U-87MG ATCC [2],Active
same,Vd,[3],1.32 L/kg
same,solubility,[4],0.552 mg/mL
same,IC50,[5],33.8 µM
same,Activity,U-87 MG [6],Active
same,remaining at 4 h,[7],99.8%
same,Activity,[8],Non-Toxic
same,AUC(0-inf),[9],13.3 µg·h/mL
same,IC50,U-87 MG [10],70.1 µM
same,Activity,U-87 MG [11],10.9%
same,IC50,U-87 MG [12],19.8 µM
same,Activity,U-87MG ATCC [13],Active
same,Activity,[14],Non-Toxic
same,Cmax,[15],8.62 µg/mL
same,Activity,U-87 MG [16],19.2%
same,IC50 at 48 h,[17],> 200 µM

# Source: ChEMBL document CHEMBL5584313, “Design and Synthesis of 7-Oxabicyclo[2.2.1]heptane-2,3-dicarboxylic Acid Derivatives as PP5 Inhibitors To Reverse Temozolomide Resistance in Glioblastoma Multiforme” (J Med Chem, 2024)
